# Source: patent US4031218A, “7-(2,3-Dihydroxypropyl-1,3-di-n-propylxanthine and a pharmaceutical composition containing same useful as a bronchial muscle relaxant” (Mallinckrodt, Inc., priority 1976, dated 1977)
# Experiments:
# [1] = Summary of relative molar activities (means and therapeutic efficacy); conditions: for Therapeutic Efficacy: mean bronchodilator (therapeutic) activity divided by mean acute toxic and side effect activity; for Mean acute toxicity and side effect activity (relative molar): mean of acute toxicity and side effect lines of Table I; for Mean acute toxicity and side effect activity (relative molar) / Mean bronchodilator activity (relative molar): relative to theophylline; for Mean bronchodilator activity (relative molar): mean of bronchodilator lines of Table I
# Excerpt: ^g - Mean bronchodilator (therapeutic) activity divided by mean acute
# dog hind limb = experiment: Dog hind limb perfusion preparation (vasodilator); format: in vivo; conditions: intra-arterial; relative to theophylline, molar basis
# Excerpt: 1. Dog Hind Limb Perfusion Preparation
# A total of 12 adult mongrel dogs of either sex were used to assess the direct intra-arterial dilating capacity of the five experimental compounds. […] This was accomplished with a Harvard Variable Speed Peristaltic Pump after proximal and distal cannualtion of the femoral artery. Changes in arterial vascular resistance were reflected as changes in perfusion pressure as measured from a T-tube on the distal side of the pump. Mean systemic arterial pressure was also recorded from the contralateral femoral artery. Drug solutions, dissolved in saline, were injected into the arterial blood supply immediately prior to entering the cannulated distal artery. Logarithmically increasing doses were given at 10-minute intervals and responses were recorded.
# [2] = prior art statement; cited from earlier work
# mice = experiment: Voluntary motor activity in mice (CNS stimulation); format: in vivo, male albino Swiss mice; conditions: for I.P. CNS Stimulation (Mice), relative molar activity: relative to theophylline, molar basis; for CNS Activity, I.P. Mice / CNS Activity, I.P. Mice, change: estimated at HBD; for CNS Activity, I.P. Mice, change: voluntary motor activity
# Experimental: F. Voluntary Motor Activity Studies in Mice In an attempt to quantitatively assess central nervous system activity, each compound was evaluated for its influence on voluntary motor activity in mice according to the method described by Dews (British J. Pharmacol. 8:46, 1953). Three cylindrical actophotometer cages were utilized simultaneously, each with six light beams and six photoelectric cells. Individual digital counters were connected to each activity cage. Male albino Swiss mice with weights ranging between 19 and 24 gm were used throughout. Compounds were dissolved in distilled water and were injected intraperitoneally in logarithmically spaced doses to groups of five mice, three groups per dose level. Control groups received saline.
# [3] = Oral LD50 / oral PD50 ratio in guinea pigs; conditions: guinea pig, in vivo, median lethal dose / median protective dose, relative to theophylline, read-out: Oral LD50 / Oral PD50 (G. Pig), relative
# Experimental: where C is the average control preconvulsive time and T is the test preconvulsive time after compound administration, both in seconds. Animals with control preconvulsive times greater than 2 minutes were not used and if test preconvulsive time was longer than 10 minutes, 100% protection was arbitrarily assumed. The dose of each compound causing 50% protection (PD50) was calculated by the method of Litchfield and Wilcoxon (J. Pharmacol. Exp. Ther. 96:99, 1949).
# The PD50 of each experimental compound was determined after both intraperitoneal and oral administration. A minimum of 3 dose levels and 6 animals per dose were employed to obtain meaningful dose-response data. Protection was assessed 15-20 minutes after intraperitoneal injection and 35-40 minutes after oral gavage with a flexible plastic tube. Animals were fasted overnight prior to oral dosing. All compounds were administered in aqueous solution in concentrations commensurate to a proper volume dose. Guinea pigs were utilized between 1 and 3 times but no animal received the same compound twice in succession with a minimum of 3 days rest between doses.
# 2. Oral LD50 in Guinea Pigs
# The acute median lethal dose of each compound after oral administration was also determined in guinea pigs. Camm English Short Hair albino guinea pigs with sexes equally represented and ranging in weight from 255 to 311 gm. were used. A minimum of six animals per dose level were employed. Oral dosing was accomplished with a flexible tube inserted into the stomach. All guinea pigs were fasted overnight. […] The other compounds were dissolved in distilled water. Following administration of the appropriate doses, acute responses and lethalities were observed and LD50 values were calculated by the method of Litchfield and Wilcoxon (J. Pharmacol. Exp. Ther. 96:99, 1949).
# dogs [4] = experiment: Oral minimum emetic dose in dogs; format: in vivo, dog; conditions: for Emetic effect, P.O. Dogs: estimated at HBD; for Oral Emetic (Dogs), relative molar activity: relative to theophylline, molar basis
# Experimental: 2. Oral Minimum Emetic Dose
# The minimum dose of each compound which causes emesis after oral administration was estimated in a group of five adult mongrel dogs of either sex. Logarithmically increasing or decreasing (depending upon response) doses of each compound were administered orally via a flexible stomach tube. The compounds were dissolved in distilled water in concentrations to allow a constant volume dose of 5 ml/kg. […] Onset, frequency, and duration of emetic episodes as well as signs of CNS stimulation were also recorded.
# dogs [5] = experiment: Acute intravenous diuretic evaluation in dogs; conditions: for Diuretic Activity, I.V. Dogs: estimated at HBD; for I.V. Diuretic (Dogs), relative molar activity: relative to theophylline, molar basis
# Experimental: Acute Intravenous Evaluation in Dogs
# Compounds were tested in two dogs each. Animals were initially hydrated with 30 ml/kg of water, orally; then anesthetized with pentobarbital sodium, 30-35 mg/kg i.v. One femoral vein was cannulated and a constant intravenous infusion of warm saline (3 ml/min.) was begun and continued throughout the experiment. The contralateral femoral vein was also cannulated for intravenous drug administration. Urine was directly collected from bilateral ureter cannulae. After a 20-minute control collection period, the first dose of the appropriate compound was injected and urine was collected at 20-minute intervals for a period of one hour. This procedure was repeated for two additional doses of the same compound. Urine volume, pH, and sodium and potassium levels were determined for each 20-minute collection period and sums were obtained for the one-hour period after each dose. Test results, reported as successive changes in each parameter, were compared accordingly.
# dogs [6] = experiment: Intravenous cardiovascular evaluation in dogs; conditions: for CF (coronary flow) change / CO (cardiac output) change / CW (cardiac work) change / HR (heart rate) change / MAP (mean arterial pressure) change / MCF (myocardial contractile force) change / TPR (total peripheral resistance) change / Cardiovascular effects (Mean): i.v. dogs, estimated at HBD; for I.V. Cardiovascular (Dogs), mean relative molar activity: mean for arterial pressure, heart rate, contractile force, cardiac output, stroke volume, cardiac work, TPR, coronary flow and resistance, relative to theophylline; for Cardiovascular effects (Mean): mean of the cardiovascular changes
# Experimental: Intravenous Cardiovascular Evaluation in Dogs
# Thirteen adult mongrel dogs of either sex ranging in weight from 16.7 to 25.0 kg were employed to compare the overall intravenous cardiovascular activity of the five experimental compounds.
# Dogs were anesthetized with pentobarbital sodium, 30-35 mg/kg i.v., fitted with a cuffed endotracheal tube, and ventilated with a Harvard Animal Respiratory Pump. A femoral vein was cannulated for i.v. drug administration. The left common carotid artery was cannulated and the cannula tip advanced into the aortic arch. A median sternotomy was performed and appropriately sized electromagnetic blood flow transducers (Biotronex) were placed around the ascending aorta and left anterior descending coronary artery. These procedures allowed continuous recording or calculation of the following parameters:
# a. Mean Arterial Pressure (MAP); from the aortic cannula.
# b. Heart Rate (HR); electronically from pulsatile ascending aortic flow.
# c. Cardiac Output (CO); mean ascending aortic flow.
# d. Myocardial Contractile Force (MCF); dQ/dt, the first derivative of maximum aortic flow rate, also known as peak aortic flow acceleration.
# e. Stroke Volume (SV); quotient of CO/HR.
# f. Cardiac Work (CW); product of CO X MAP.
# g. Total Peripheral Resistance (TPR); quotient of MAP/CO.
# h. Coronary Flow (CF); mean left anterior descending (LAD) coronary flow.
# i. Coronary Resistance (CR); quotient of MAP/CF.
# Logarithmically increasing doses of the appropriate compound were injected at 20-minute intervals. Responses were measured at 1, 2, 5, 10, 15 and 20 minutes after each dose and the average response during that period was calculated. Theophylline (aminophylline), dyphylline (II), and Compound V were employed in both 20 and 80 mg/ml concentrations in distilled water. Compounds III and IV were used in 10 and 30 mg/ml concentrations respectively.
# human bronchodilator = experiment: Estimated human bronchodilator dose equivalent to recommended theophylline dose; conditions: based on recommended theophylline dose and relative bronchodilator activities
# Excerpt: Experimental results are summarized in Table I wherein pharmacologic and toxicologic activities relative to that of theophylline are expressed on a molar basis.
# ^a - Dose: Based on the recommended dose for theophylline and the
# relative activities in the bronchodilator experiments.
# dogs [7] = experiment: Intravenous emetic study in dogs (ED50); format: in vivo, dog; conditions: for Emetic effect, I.V. Dogs: estimated at HBD; for I.V. Emetic (Dogs), relative molar activity: relative to theophylline, molar basis
# Experimental: (§1) Twelve adult mongrel dogs of either sex were employed to determine the median emetic dose (ED50) of all five experimental compounds after intravenous administration. […] Onset, frequency, and duration of emetic episodes were also recorded. The dogs were not fasted, were allowed at least 2 days rest between doses, and no animal received the same compound twice in succession. […] ED50 values were calculated according to the method of Litchfield and Wilcoxon (1949).
# [8] = Intravenous emetic study in dogs (ED50); format: in vivo, dog; conditions: dog, in vivo, iv; read-out: ED50 (median emetic dose), I.V. Dogs
# Experimental: as §1
# [9] = Acute toxicity and side effects; conditions: compared with theophylline
SMILES,Therapeutic Efficacy [1],Mean acute toxicity and side effect activity (relative molar) [1],Mean bronchodilator activity (relative molar) [1],"Vasodilator, HLPP (Dogs), relative molar activity (dog hind limb)","I.P. CNS Stimulation (Mice), relative molar activity (mice)",selectivity ratio [3],"MED (minimum emetic dose), P.O. Dogs (dogs [4])","Emetic effect, P.O. Dogs (dogs [4])","Oral Emetic (Dogs), relative molar activity (dogs [4])","Diuretic Activity, I.V. Dogs (dogs [5])","I.V. Diuretic (Dogs), relative molar activity (dogs [5])",CF (coronary flow) change (dogs [6]),CO (cardiac output) change (dogs [6]),CW (cardiac work) change (dogs [6]),HR (heart rate) change (dogs [6]),MAP (mean arterial pressure) change (dogs [6]),MCF (myocardial contractile force) change (dogs [6]),TPR (total peripheral resistance) change (dogs [6]),"I.V. Cardiovascular (Dogs), mean relative molar activity (dogs [6])",Cardiovascular effects (Mean) (dogs [6]),further results
"Cn1c(=O)c2c(ncn2CC(O)CO)n(C)c1=O (stereo not shown) [Compound II, 7-(2,3-dihydroxypropyl) 1,3-dimethylxanthine]",2.31,0.26,0.60,0.06,0.18,2,> 362 mg/kg,None,< 0.50,Moderate,0.26,+10 %Δ,-15 %Δ,-30 %Δ,+11 ΔBPM,-20 ΔmmHg,-5 %Δ,+3 %Δ,0.36,13,"Side effects / tolerance in words (prior art) [2]: few of the usual theophylline-like side effects; Estimated Human Bronchodilator Dose (HBD), per 70 kg (human bronchodilator): 2353 mg/70 kg; Estimated Human Bronchodilator Dose (HBD), per kg (human bronchodilator): 33.6 mg/kg; Emetic effect, I.V. Dogs (dogs [7]): None; I.V. Emetic (Dogs), relative molar activity (dogs [7]): 0.09; ED50 [8]: 900 mg/kg"
"CCCn1c(=O)c2c(ncn2CC(O)CO)n(CCC)c1=O (stereo not shown) [Compound V, 7-(2,3-dihydroxypropyl)-1,3-di-n-propylxanthine]",2.51,0.70,1.76,0.40,0.30,3.75,442 mg/kg,None,0.50,Mild,0.59,+17 %Δ,+6 %Δ,+2 %Δ,+7 ΔBPM,-5 ΔmmHg,+15 %Δ,-9 %Δ,0.91,9,"CNS Activity, I.P. Mice (mice): None; CNS Activity, I.P. Mice, change (mice): -1 %Δ; Acute toxicity, emetic, cardiovascular, CNS and diuretic effects in words [9]: less active in regard to acute toxicity as well as undesirable cardiovascular, CNS, diuretic and oral emetic effects; Estimated Human Bronchodilator Dose (HBD), per 70 kg (human bronchodilator): 299 mg/70 kg; Estimated Human Bronchodilator Dose (HBD), per kg (human bronchodilator): 4.3 mg/kg; Emetic effect, I.V. Dogs (dogs [7]): None; I.V. Emetic (Dogs), relative molar activity (dogs [7]): 1.91; ED50 [8]: 53 mg/kg"
"CCCn1c(=O)c2c(ncn2CC(C)O)n(CCC)c1=O (stereo not shown) [III, 7-(2-hydroxypropyl) 1,3-di-n-propylxanthine]",0.09,36.55,3.46,0.76,1.73,5.43,0.8 mg/kg,Severe,251.00,Mild,0.50,+8 %Δ,+10 %Δ,+2 %Δ,+21 ΔBPM,-8 ΔmmHg,+28 %Δ,-15 %Δ,1.16,13,"Side effects / tolerance in words (prior art) [2]: well tolerated; CNS Activity, I.P. Mice (mice): Severe; CNS Activity, I.P. Mice, change (mice): -60 %Δ; Acute toxicity, emetic, cardiovascular, CNS and diuretic effects in words [9]: increased undesirable emetic, cardiovascular and central nervous system (CNS) effects; Estimated Human Bronchodilator Dose (HBD), per 70 kg (human bronchodilator): 99 mg/70 kg; Estimated Human Bronchodilator Dose (HBD), per kg (human bronchodilator): 1.4 mg/kg; Emetic effect, I.V. Dogs (dogs [7]): Severe; I.V. Emetic (Dogs), relative molar activity (dogs [7]): 134.17; ED50 [8]: 0.7 mg/kg"
"CCCn1c(=O)c2c(ncn2CCCO)n(CCC)c1=O [IV, 7-(3-hydroxypropyl)-1,3-di-n-propylxanthine]",0.72,2.60,1.87,1.06,0.48,3.57,33 mg/kg,None,6.00,Mild,0.45,+4 %Δ,+2 %Δ,-26 %Δ,+80 ΔBPM,-25 ΔmmHg,+20 %Δ,-5 %Δ,2.02,23,"Side effects / tolerance in words (prior art) [2]: well tolerated; CNS Activity, I.P. Mice (mice): Moderate; CNS Activity, I.P. Mice, change (mice): -17 %Δ; Acute toxicity, emetic, cardiovascular, CNS and diuretic effects in words [9]: increased undesirable emetic, cardiovascular and central nervous system (CNS) effects; Estimated Human Bronchodilator Dose (HBD), per 70 kg (human bronchodilator): 347 mg/70 kg; Estimated Human Bronchodilator Dose (HBD), per kg (human bronchodilator): 5.0 mg/kg; Emetic effect, I.V. Dogs (dogs [7]): Moderate; I.V. Emetic (Dogs), relative molar activity (dogs [7]): 12.88; ED50 [8]: 7.5 mg/kg"
